Reference: PMC12118671, “Increased imaging ligand hydrophilicity and improved pharmacokinetic properties provides enhanced in vivo targeting of fibroblast activation protein” (npj Imaging, 2024)
“And” between values parts separate entries of the source, which are not always exact repeats. Equal entries are not always repeated.

Experiments:
FAP [1] = system: FAP; design: method as in PMID 29626119; details: read-out: EC50 through competition assays; cited from earlier work
[2] = Plasma pharmacokinetics after IV bolus, non-compartmental analysis; type: in vivo, mouse; details: for AUC(0-inf) / C0 / clearance / half-life / Vd: mouse, plasma, healthy male DBA1/J mice, Mean ± SEM; for AUC(0-inf) / C0: IV bolus 2 nmol (FAPI dosed 51 nmol, dose normalized to 2 nmol); for clearance / half-life / Vd: IV bolus; for half-life: read-out: Terminal t1/2 (converted); for Vd: read-out: VD,ss; for clearance category (Fig. 1): words in Fig. 1
Description: FAPI was dosed IV (51 nmol) via the tail vein to maintain concentrations above LLOQ for PK analysis while all other FAPI conjugates were dosed IV (1 or 2 nmol in 150 µL PBS) via the tail vein. […] Whole blood was diluted with 10 mM EDTA in PBS and spun down to isolate plasma. Fluorescent ligand concentrations were quantified using a LI-COR Odyssey CLx scanner (Lincoln, NE) using a dilution series of fluorescent standards as previously reported. Non-compartmental analysis was conducted using the concentration vs. time profiles for each probe with MATLAB. The predicted initial concentration, terminal phase half-life, exposure (AUC0-inf), AUC extrapolation percentage, volume of distribution at steady state, and terminal clearance were reported for each dosed probe.

FAP [3] = target: T1, FAP (Mus musculus, UniProt P97321); test: In vivo near-infrared imaging of paws with competitive blocking, CIA model
T1 construct: Increased FAP expression with increasing disease severity in CIA mice as assessed with IHC; from tissue; host or cells: inflamed paws of live DBA/1J mice with collagen-induced arthritis
T1 sequence (P97321 1-761): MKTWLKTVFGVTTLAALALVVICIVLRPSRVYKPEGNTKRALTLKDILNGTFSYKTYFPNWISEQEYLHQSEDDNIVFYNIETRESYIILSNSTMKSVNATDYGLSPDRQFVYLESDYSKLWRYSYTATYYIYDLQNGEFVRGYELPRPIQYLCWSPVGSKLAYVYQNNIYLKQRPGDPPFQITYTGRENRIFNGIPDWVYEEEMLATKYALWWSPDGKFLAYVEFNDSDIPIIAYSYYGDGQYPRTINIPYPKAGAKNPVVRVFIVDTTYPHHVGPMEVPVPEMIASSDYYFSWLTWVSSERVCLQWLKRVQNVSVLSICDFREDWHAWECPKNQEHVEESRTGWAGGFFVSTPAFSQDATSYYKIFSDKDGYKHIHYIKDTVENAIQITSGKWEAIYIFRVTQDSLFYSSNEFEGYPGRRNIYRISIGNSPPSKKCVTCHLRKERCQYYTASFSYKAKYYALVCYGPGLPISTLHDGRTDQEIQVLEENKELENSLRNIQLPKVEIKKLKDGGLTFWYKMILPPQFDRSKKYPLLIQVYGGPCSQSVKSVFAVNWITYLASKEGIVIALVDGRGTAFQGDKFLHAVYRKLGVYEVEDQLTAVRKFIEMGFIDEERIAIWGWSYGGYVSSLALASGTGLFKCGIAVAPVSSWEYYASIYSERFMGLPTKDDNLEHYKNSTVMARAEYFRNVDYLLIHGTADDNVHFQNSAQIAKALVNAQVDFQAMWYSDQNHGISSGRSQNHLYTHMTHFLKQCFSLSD

[4] = target: T2, cell surface FAP (HEK293-hFAP cells) (Homo sapiens, UniProt Q12884); test: Competition assay against FAPI-ALB-AF647 for indirect KD; type: binding; details: competition with FAPI-ALB-AF647, 60 nM each, 30 min on ice, read-out: KD (nM), indirectly calculated
T2 construct: expressed in transfected cells; host or cells: HEK293 (ATCC, CRL-1573), Lipofectamine 3000 transfection, puromycin selection
T2 sequence (Q12884 1-760): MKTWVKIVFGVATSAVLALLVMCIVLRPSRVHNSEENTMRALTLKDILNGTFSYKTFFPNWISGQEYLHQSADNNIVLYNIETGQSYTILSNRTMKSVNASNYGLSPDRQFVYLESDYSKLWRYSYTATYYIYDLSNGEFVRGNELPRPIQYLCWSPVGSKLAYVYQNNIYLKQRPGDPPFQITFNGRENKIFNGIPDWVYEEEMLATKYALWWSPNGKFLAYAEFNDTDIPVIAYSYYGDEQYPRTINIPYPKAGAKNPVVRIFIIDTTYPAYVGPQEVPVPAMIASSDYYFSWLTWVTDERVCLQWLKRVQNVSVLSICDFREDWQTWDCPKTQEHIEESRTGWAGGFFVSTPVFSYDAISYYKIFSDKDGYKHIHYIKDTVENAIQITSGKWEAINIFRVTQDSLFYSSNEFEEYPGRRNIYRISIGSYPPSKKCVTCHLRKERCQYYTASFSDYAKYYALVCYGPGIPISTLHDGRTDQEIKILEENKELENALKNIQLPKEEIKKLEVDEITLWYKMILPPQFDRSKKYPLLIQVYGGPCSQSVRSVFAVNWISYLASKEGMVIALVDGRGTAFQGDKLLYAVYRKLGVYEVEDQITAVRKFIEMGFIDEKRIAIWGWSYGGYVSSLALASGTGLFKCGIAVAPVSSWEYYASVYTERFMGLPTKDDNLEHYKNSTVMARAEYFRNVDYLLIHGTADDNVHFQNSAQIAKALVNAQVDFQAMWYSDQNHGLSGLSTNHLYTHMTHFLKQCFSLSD
Description: Both the FAPI-ALB-AF647 and the unlabeled competitor were incubated at 60 nM each on HEK293-hFAP cells for 30 min on ice to approach steady-state binding. The competition assay cells were pelleted and washed twice with PBS w/ 0.1% BSA before being analyzed using a BD Fortessa flow cytometer. The loss in signal from the competition incubation was then compared to the signal of the FAPI-ALB-AF647 incubation alone to determine the relative binding affinity.

[5] = Plasma protein binding by equilibrium dialysis; type: in vitro ADME; details: CD1 mouse plasma, 1 µM, equilibrium dialysis 4 h at 37 °C
Description: CD1 mouse plasma protein binding was assessed via equilibrium dialysis. Dry membranes (HT Dialysis, HTD96b) were soaked in DI water for 15 min and then in 30% ethanol for another 15 min. After washing the membranes 3 times with DI water, the membranes were placed in dialysis buffer (potassium phosphate, 50 mM, pH 7.4) until the assay began. At the beginning of the assay, the membranes were placed in the dialysis block and 100 µL of buffer was added to both sides of the membrane to maintain membrane hydration/integrity. Each compound was diluted to 1 µM using plasma and then 100 µL of this mixture was added to one side of the membrane while 100 µl of […] was placed in opposite well. The plate was then sealed and placed on an orbital shaker (150 rpm) in an incubator at 37 °C for 4 h. Afterwards, samples were taken from the donor and acceptor side of the well, vortexed, centrifuged at 3300 rpm for 15 min at 4 °C and then analyzed for compound content using LC/MS.

HEK293-hFAP cells = test: Receptor net internalization assay, flow cytometry with Trypan Blue quench; type: cell-based, human; details: endogenous and overexpressing cells together
Description: The receptor internalization assay was adapted from a previously published method for peptides[61],[63]. Briefly, HEK293-hFAP cells were sub-cultured into 6-well plates and allowed to adhere for 12–16 h. After washing cells with media, 100 nM of FAPI-AF488 in media was added to each well. Cells were incubated at 37 °C in the continuous presence of FAPI-AF488 and allowed to internalize. At each time point, plates were chilled, wells washed twice with PBS with 0.1% BSA, and cells lifted following Accutase incubation. Lastly, cells were resuspended in PBS or a dilution of 0.4% Trypan Blue before being analyzed via flow cytometry to differentiate between internal and surface fluorescence. The surface fluorescence was determined as (unquenched MFU – quenched MFU)/ɛ, where ɛ is the quenching efficiency determined by comparing the quenched and unquenched signals of cells that had been labeled briefly on ice to prevent internalization. The internal fluorescence was then calculated as total MFU – surface MFU. Non-specific uptake of small molecules was measured using cells where FAPI-AF488 was competed out with 100-fold excess concentration of the unlabeled FAPI. The corrected internal MFU values were plotted against the surface fluorescence integral; the slope of the linear curve is the internalization rate ke[64]. The same procedure was followed for the endogenous RAFLS cells.

Row | AUC(0-inf) [2] [µM·h] | C0 [2] [nM] | clearance [2] [mL/min] | half-life [2] [min] | Vd [2] [L] | clearance category (Fig. 1) [2] | mean fluorescence intensity in healthy paws (FAP [3]; healthy mice, 5 h, 1 nmol IV, no block) | Kd [4] [nM] | % Protein Bound ± SD [5] | mean fluorescence intensity of FAPI-ALB-800CW in inflamed paws when blocked by this compound (FAP [3]; CIA mice, 24 h, 1 nmol IV probe, blocker co-administered at 50-fold molar excess) | internalization half-life (t1/2) (HEK293-hFAP cells) [min] | effect of co-dosed molar excess blocker on FAPI-800CW uptake in inflamed paws (FAP [3]; CIA mice, 5 h, 50-fold molar excess) | Structure (SMILES) | EC50 (FAP [1]) [nM]
1 |  |  |  |  |  |  |  |  |  |  |  |  | N#C[C@@H]1CC(F)(F)CN1C(=O)CNC(=O)c1ccnc2ccc(OCCCN3CCN(C(=O)CN4CCN(CC(=O)O)CCN(CC(=O)O)CCN(CC(=O)O)CC4)CC3)cc12 [FAPI-04] | 6.5
2 | 0.525 ± 0.025 | 1250 ± 52 | 0.0638 | 60 ± 6 | 0.0039 ± 0.0002 | Moderate clearance | 0.026 ± 0.007 | 8 |  |  |  |  | CC1(C)C(/C=C/C2=C(Oc3ccc(S(=O)(=O)O)cc3)C(=C/C=C3/N(CCCCS(=O)(=O)O)c4ccc(S(=O)(=O)O)cc4C3(C)C)/CCC2)=[N+](CCCCCC(=O)N2CCN(CCCOc3ccc4nccc(C(=O)NCC(=O)N5CC(F)(F)C[C@H]5C#N)c4c3)CC2)c2ccc(S(=O)(=O)O)cc21.O=C([O-])C(F)(F)F [FAPI-800CW] | 
3 | 0.088 ± 0.018 | 189 ± 52 | 0.42 | 54 | 0.0145 ± 0.0084 | Moderate clearance |  | 3.6 | 98.9 ± 0.2% | 0.07 ± 0.01 |  |  | N#CC1CC(F)(F)CN1C(=O)CNC(=O)c1ccnc2ccc(OCCCN3CCN(C(=O)C(N)CCC(=O)NCCOCCOCC(=O)NCc4ccc(S(=O)(=O)NC(=O)c5ccc(-c6ccc(C(F)(F)F)cc6)cc5)cc4)CC3)cc12 (stereo not shown) [FAPI-ALB] | 
4 | 0.014 ± 0.004 | 50 ± 7 | 3.9 | 30 ± 6 | 0.0627 ± 0.0184 | Fast clearance |  | 6 | 44.7% and 44.7 ± 3.1% |  | 240 to 480 | did not provide a similar reduction | N#C[C@@H]1CC(F)(F)CN1C(=O)CNC(=O)c1ccnc2ccc(OCCCN3CCNCC3)cc12 [FAPI] | 
